Where two headings read alike, the source gives them in different places.
How the values were obtained:
ATR kinase = target: T1, ATR kinase (Homo sapiens, UniProt Q13535); assay: Inhibitory effect on ATR kinase activity (Caliper mobility shift, FAM-labeled RAD17 peptide substrate); assay type: biochemical; details: 1 nM ATR kinase (Eurofins), 28°C for 3 hours, maximum concentration 1 µM, 10 concentrations
T1 construct: purchased Eurofins 14-953
Protocol: Test Example 1: Inhibitory effect of the compounds of the present disclosure on ATR kinase activity
Test compounds to be tested were serially diluted with DMSO (maximum concentration 1 µM, 10 concentrations with 3-fold serial dilution) and added to the wells of a 384-well reaction plate (Corning, #4512). 1 nM ATR kinase (Eurofins, #14-953), 5 mM substrate (FAM-labeled RAD17 peptide, FAM-ASELPASQPQPFSAKKK), 5 mM ATP and the compounds with corresponding concentrations reacted in a kinase reaction solution (50 mM HEPES, pH 7.5; 0.0015% Brij-35; 10 mM MnCl2, total volume of 20 µL) at 28°C for 3 hours. The reaction was terminated by adding 30 µL of stop solution (100 mM HEPES, pH 7.5; 0.015% Brij-35; 0.2% Coating Reagent #3, PerkinElmer; 50 mM EDTA). The reaction plate was placed on a Caliper instrument (PerkinElmer) for testing. The relative inhibitory activity of each compound concentration group was calculated using the following formula: % Inhibition = (Conversion rate of the blank control group without compound added - Conversion rate of the test compound group) / (Conversion rate of the blank control group - […]). The IC50 values were calculated using GraphPad analysis and fitted. […] Table 1. Inhibitory effect (IC50) of compounds on ATR kinase activity.

LoVo cells = assay: LoVo cell proliferation assay (CellTiter-Glo); assay type: cell-based; details: maximum concentration 10 µM, 9 concentrations
Protocol: Test Example 2: LoVo cell proliferation assay
LoVo (ATCC, #CRL-229) cells in logarithmic growth phase were digested, counted, and plated into 96-well cell culture plates at 2,000 cells per well. The plates containing cells were incubated overnight at 37°C in a 5% CO2 incubator, and then test compounds with 3-fold gradient dilutions (maximum concentration: 10 µM, 9 concentrations) were added. DMSO was used as a blank control. After the LoVo cells containing the compounds or DMSO were incubated for an additional 5 days, an equal volume of CellTiter-Glo reagent (Promega, #7573) was added. After incubation at room temperature for 30 minutes, chemiluminescence was read using an Envision 2105 (PerkinElmer). The cell proliferation inhibition rate (%) for wells treated with each concentration of the compounds was calculated using the following formula. Then, with compound concentration as the horizontal axis and cell proliferation inhibition rate (%) as the vertical axis, GraphPad software was used to plot the data and determine the IC50 values of the test compounds. The results are shown in Table 2, wherein the IC50 ranges are defined as follows: A: ≤ 100 nM; 1000 nM ≥ B > 100 nM; C > 1000 nM.
Cell proliferation inhibition (%) = (1 - luminescence value of compound-treated group / average luminescence value of DMSO blank control group) × 100. Table 2. Inhibitory effect of compounds on LoVo growth

[1] = Homo sapiens, LoVo, 120 h, LoVo cells, 2,000 cells per well, 5 days incubation, CellTiter-Glo, read-out: LoVo IC50
[2] = LoVo cells, 2,000 cells per well, 5 days incubation, CellTiter-Glo, read-out: LoVo IC50

T1 sequence (Q13535 whole entry): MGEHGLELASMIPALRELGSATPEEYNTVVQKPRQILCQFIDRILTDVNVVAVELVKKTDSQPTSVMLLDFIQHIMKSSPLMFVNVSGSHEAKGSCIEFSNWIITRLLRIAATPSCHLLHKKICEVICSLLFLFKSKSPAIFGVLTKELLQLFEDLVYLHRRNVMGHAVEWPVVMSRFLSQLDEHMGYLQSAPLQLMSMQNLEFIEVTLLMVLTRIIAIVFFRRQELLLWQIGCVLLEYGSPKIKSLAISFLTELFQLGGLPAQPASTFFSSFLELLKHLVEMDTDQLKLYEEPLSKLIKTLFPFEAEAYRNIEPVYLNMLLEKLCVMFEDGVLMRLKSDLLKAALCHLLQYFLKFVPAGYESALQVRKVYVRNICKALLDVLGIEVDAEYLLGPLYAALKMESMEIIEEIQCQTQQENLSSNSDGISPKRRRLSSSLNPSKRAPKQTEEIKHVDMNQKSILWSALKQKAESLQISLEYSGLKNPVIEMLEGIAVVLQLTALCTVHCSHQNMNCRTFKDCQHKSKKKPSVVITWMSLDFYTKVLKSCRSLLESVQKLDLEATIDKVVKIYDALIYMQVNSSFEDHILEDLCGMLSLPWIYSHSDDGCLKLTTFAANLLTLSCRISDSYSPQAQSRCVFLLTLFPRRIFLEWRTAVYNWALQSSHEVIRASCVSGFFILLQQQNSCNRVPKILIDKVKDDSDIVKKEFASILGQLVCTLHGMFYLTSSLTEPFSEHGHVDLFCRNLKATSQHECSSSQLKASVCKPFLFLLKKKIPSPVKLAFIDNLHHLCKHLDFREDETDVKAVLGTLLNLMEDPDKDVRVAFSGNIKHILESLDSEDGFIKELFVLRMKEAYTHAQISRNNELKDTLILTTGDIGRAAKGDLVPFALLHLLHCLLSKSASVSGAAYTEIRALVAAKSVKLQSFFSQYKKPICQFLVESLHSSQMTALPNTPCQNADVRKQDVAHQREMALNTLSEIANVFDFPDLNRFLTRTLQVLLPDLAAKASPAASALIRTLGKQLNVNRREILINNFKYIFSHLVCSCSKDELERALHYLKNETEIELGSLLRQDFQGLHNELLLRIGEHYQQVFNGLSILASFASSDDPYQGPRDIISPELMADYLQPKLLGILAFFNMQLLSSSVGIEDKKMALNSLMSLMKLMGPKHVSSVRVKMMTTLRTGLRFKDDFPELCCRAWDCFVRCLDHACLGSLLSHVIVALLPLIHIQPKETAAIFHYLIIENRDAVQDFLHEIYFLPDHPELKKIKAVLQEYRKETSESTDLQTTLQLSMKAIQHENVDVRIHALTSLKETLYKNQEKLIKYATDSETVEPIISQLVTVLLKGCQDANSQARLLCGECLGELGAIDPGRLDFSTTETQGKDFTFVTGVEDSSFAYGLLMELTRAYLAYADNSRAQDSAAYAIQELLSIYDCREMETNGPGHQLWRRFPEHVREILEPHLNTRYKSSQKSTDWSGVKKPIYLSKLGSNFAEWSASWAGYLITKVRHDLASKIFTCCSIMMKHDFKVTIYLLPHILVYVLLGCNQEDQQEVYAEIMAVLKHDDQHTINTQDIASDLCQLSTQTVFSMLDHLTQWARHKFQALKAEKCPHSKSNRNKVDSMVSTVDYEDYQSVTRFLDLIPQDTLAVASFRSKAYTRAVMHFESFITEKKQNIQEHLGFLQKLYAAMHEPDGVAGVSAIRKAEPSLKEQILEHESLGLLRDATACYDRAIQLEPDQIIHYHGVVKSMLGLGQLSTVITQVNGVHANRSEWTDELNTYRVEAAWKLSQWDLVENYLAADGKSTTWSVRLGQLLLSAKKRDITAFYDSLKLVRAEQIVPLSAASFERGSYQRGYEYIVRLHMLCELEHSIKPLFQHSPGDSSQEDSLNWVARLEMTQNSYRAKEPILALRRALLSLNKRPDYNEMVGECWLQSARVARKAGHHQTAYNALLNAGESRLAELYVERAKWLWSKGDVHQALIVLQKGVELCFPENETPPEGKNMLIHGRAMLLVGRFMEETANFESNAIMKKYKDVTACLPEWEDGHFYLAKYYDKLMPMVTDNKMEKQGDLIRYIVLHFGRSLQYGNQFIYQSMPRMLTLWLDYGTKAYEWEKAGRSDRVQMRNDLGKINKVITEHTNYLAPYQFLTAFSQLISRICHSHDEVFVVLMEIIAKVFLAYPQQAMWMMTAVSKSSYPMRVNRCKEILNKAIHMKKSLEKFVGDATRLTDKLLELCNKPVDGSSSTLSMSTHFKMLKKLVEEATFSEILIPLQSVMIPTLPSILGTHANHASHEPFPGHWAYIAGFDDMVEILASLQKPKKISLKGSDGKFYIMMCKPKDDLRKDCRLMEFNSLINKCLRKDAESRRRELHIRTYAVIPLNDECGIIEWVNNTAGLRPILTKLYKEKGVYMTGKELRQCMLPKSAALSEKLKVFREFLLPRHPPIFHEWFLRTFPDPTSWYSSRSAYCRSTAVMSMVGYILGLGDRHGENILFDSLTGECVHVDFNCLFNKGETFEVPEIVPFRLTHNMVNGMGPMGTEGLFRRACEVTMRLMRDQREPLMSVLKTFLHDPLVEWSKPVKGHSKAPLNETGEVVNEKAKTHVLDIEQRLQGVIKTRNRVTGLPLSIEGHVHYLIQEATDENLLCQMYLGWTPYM
T1 sequence (Q8WXE1 whole entry partner): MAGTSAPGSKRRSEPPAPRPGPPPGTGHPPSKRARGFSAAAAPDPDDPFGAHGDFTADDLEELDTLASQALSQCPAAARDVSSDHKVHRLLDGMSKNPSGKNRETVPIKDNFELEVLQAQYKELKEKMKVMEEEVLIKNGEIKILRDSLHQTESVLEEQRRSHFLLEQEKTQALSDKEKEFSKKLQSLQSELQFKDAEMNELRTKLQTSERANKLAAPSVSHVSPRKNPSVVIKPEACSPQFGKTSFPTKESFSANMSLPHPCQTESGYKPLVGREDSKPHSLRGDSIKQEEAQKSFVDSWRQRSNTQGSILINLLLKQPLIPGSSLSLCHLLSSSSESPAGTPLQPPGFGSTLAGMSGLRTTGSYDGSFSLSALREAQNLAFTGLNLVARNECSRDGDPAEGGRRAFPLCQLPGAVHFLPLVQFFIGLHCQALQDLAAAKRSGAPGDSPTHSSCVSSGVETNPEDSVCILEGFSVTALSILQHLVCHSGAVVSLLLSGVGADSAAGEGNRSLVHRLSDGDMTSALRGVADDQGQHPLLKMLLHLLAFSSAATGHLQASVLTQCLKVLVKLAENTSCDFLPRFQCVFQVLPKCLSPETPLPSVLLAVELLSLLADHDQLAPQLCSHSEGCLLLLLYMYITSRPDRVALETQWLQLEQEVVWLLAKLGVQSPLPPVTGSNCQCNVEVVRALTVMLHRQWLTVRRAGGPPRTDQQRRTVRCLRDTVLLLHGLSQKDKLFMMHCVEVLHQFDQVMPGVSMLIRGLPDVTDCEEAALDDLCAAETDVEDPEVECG

SMILES | IC50 (ATR kinase; read-out: ATR kinase IC50) | IC50 (LoVo cells; [1]) | IC50 (LoVo cells; [2]) | IC50 (ATR kinase; ATR kinase IC50 (nM)) | IC50 (LoVo cells; Homo sapiens, LoVo, 120 h, read-out: LoVo IC50 (nM), LoVo cells, 2,000 cells per well, 5 days incubation, CellTiter-Glo)
CCS(=O)(=O)N1CCc2nn(-c3cc[nH]n3)c3nc(N4CCOC[C@H]4C)cc(c23)C1C (single isomer, unassigned) [Compound 48A] | 10 to 100 nM | 100 to 1000 nM | – | – | –
CCS(=O)(=O)N1CCc2nn(-c3cc[nH]n3)c3nc(N4CCOC[C@H]4C)cc(c23)C1C (single isomer, unassigned) [Compound 48B] | < 10 nM | – | < 100 nM | – | –
CC1c2cc(N3CCOC[C@H]3C)nc3c2c(nn3-c2cc[nH]n2)CCN1S(=O)(=O)C1(C)CC1 (single isomer, unassigned) [Compound 49A] | < 10 nM | < 100 nM | – | – | –
CC1c2cc(N3CCOC[C@H]3C)nc3c2c(nn3-c2cc[nH]n2)CCN1S(=O)(=O)C1(C)CC1 (single isomer, unassigned) [Compound 49B] | 10 to 100 nM | – | 100 to 1000 nM | – | –
CC(C)C1(O)CCn2nc(-c3cc[nH]n3)c3nc(N4CCOC[C@H]4C)cc1c32 (single isomer, unassigned) [Compound 72A] | 100 to 1000 nM | – | > 1000 nM | – | –
CC(C)C1(O)CCn2nc(-c3cc[nH]n3)c3nc(N4CCOC[C@H]4C)cc1c32 (single isomer, unassigned) [Compound 72B] | 100 to 1000 nM | – | 100 to 1000 nM | – | –
C[C@@H]1COCCN1c1cc2c3c(nn(-c4cc[nH]n4)c3n1)CCN(S(C)(=O)=O)C2C1CC1 (single isomer, unassigned) [Compound 138A] | < 10 nM | 100 to 1000 nM | – | – | –
C[C@@H]1COCCN1c1cc2c3c(nn(-c4cc[nH]n4)c3n1)CCN(S(C)(=O)=O)C2C1CC1 (single isomer, unassigned) [Compound 138B] | < 10 nM | – | < 100 nM | – | –
CC(C)C1c2cc(N3CCOC[C@H]3C)nc3c2c(nn3-c2cc[nH]n2)CCN1C (single isomer, unassigned) [Compound 141A] | < 10 nM | < 100 nM | – | – | –
CC(C)C1c2cc(N3CCOC[C@H]3C)nc3c2c(nn3-c2cc[nH]n2)CCN1C (single isomer, unassigned) [Compound 141B] | < 10 nM | – | < 100 nM | – | –
C[C@@H]1COCCN1c1cc2c3c(nn(-c4cc[nH]n4)c3n1)CCN(C)C2C1CC1 (single isomer, unassigned) [Compound 142A] | < 10 nM | < 100 nM | – | – | –
C[C@@H]1COCCN1c1cc2c3c(nn(-c4cc[nH]n4)c3n1)CCN(C)C2C1CC1 (single isomer, unassigned) [Compound 142B] | < 10 nM | – | < 100 nM | – | –
CCC1c2cc(N3CCOC[C@H]3C)nc3c2c(nn3-c2cc[nH]n2)CCN1S(C)(=O)=O (single isomer, unassigned) [Compound 144A] | < 10 nM | 100 to 1000 nM | – | – | –
CCC1c2cc(N3CCOC[C@H]3C)nc3c2c(nn3-c2cc[nH]n2)CCN1S(C)(=O)=O (single isomer, unassigned) [Compound 144B] | < 10 nM | – | < 100 nM | – | –
CCC1c2cc(N3CCOC[C@H]3C)nc3c2c(nn3-c2cc[nH]n2)CCN1S(=O)(=O)C1CC1 (single isomer, unassigned) [Compound 145A] | 10 to 100 nM | 100 to 1000 nM | – | – | –
CCC1c2cc(N3CCOC[C@H]3C)nc3c2c(nn3-c2cc[nH]n2)CCN1S(=O)(=O)C1CC1 (single isomer, unassigned) [Compound 145B] | < 10 nM | – | 100 to 1000 nM | – | –
CC1c2cc(N3CCOC[C@H]3C)nc3c2c(nn3-c2cc[nH]n2)CCN1S(=O)(=O)C1CC1F (single isomer, unassigned) [Compound 151A] | < 10 nM | < 100 nM | – | – | –
CC1c2cc(N3CCOC[C@H]3C)nc3c2c(nn3-c2cc[nH]n2)CCN1S(=O)(=O)C1CC1F (single isomer, unassigned) [Compound 151B] | < 10 nM | – | < 100 nM | – | –
CC1c2cc(N3CCOC[C@H]3C)nc3c2c(nn3-c2cc[nH]n2)CCN1S(=O)(=O)C1CC1F (single isomer, unassigned) [Compound 151C] | 10 to 100 nM | – | 100 to 1000 nM | – | –
CC1c2cc(N3CCOC[C@H]3C)nc3c2c(nn3-c2cc[nH]n2)CCN1S(=O)(=O)C1CC1F (single isomer, unassigned) [Compound 151D] | 100 to 1000 nM | – | 100 to 1000 nM | – | –
CN=S(C)(=O)N1CCc2nn(-c3cc[nH]n3)c3nc(N4CCOC[C@H]4C)cc(c23)C1C (single isomer, unassigned) [Compound 152A] | < 10 nM | < 100 nM | – | – | –
CN=S(C)(=O)N1CCc2nn(-c3cc[nH]n3)c3nc(N4CCOC[C@H]4C)cc(c23)C1C (single isomer, unassigned) [Compound 152B] | 10 to 100 nM | – | 100 to 1000 nM | – | –
C[C@@H]1COCCN1c1cc2c3c(nn(-c4cc[nH]n4)c3n1)CCNC2 [Compound 1, (R)-4-(2-(1H-pyrazol-3-yl)-6,7,8,9-tetrahydro-2H-1,2,3,7-tetraazabenzo[cd]azulen-4-yl)-3-methylmorpholine] | – | – | – | 100 to 1000 nM | 100 to 1000 nM
CC(C)N1CCc2nn(-c3cc[nH]n3)c3nc(N4CCOC[C@H]4C)cc(c23)C1 [Compound 2] | 10 to 100 nM | 100 to 1000 nM | – | – | –
C[C@@H]1COCCN1c1cc2c3c(nn(-c4cc[nH]n4)c3n1)CCN(C1CCOCC1)C2 [Compound 3, (R)-4-(2-(1H-pyrazol-3-yl)-7-(tetrahydro-2H-pyran-4-yl)-6,7,8,9-tetrahydro-2H-1,2,3,7-tetraazabenzo[cd]azulen-4-yl)-3-methylmorpholine] | 10 to 100 nM | 100 to 1000 nM | – | – | –
C[C@@H]1COCCN1c1cc2c3c(nn(-c4cc[nH]n4)c3n1)CCN(C1CCOC1)C2 (stereo partly drawn) [Compound 4, (3R)-4-(2-(1H-pyrazol-3-yl)-7-(tetrahydrofuran-3-yl)-6,7,8,9-tetrahydro-2H-1,2,3,7-tetraazabenzo[cd]azulen-4-yl)-3-methylmorpholine] | 10 to 100 nM | 100 to 1000 nM | – | – | –
CC(=O)N1CCc2nn(-c3cc[nH]n3)c3nc(N4CCOC[C@H]4C)cc(c23)C1 [Compound 5] | 10 to 100 nM | 100 to 1000 nM | – | – | –
C[C@@H]1COCCN1c1cc2c3c(nn(-c4cc[nH]n4)c3n1)CCN(C1CC3CCC(C1)O3)C2 (stereo partly drawn) [Compound 6, (3R)-4-(7-(8-oxabicyclo[3.2.1]octan-3-yl)-2-(1H-pyrazol-3-yl)-6,7,8,9-tetrahydro-2H-1,2,3,7-tetraazabenzo[cd]azulen-4-yl)-3-methylmorpholine] | 100 to 1000 nM | 100 to 1000 nM | – | – | –
C[C@@H]1COCCN1c1cc2c3c(nn(-c4cc[nH]n4)c3n1)CCN(C1CC(F)(F)C1)C2 [Compound 7, (R)-4-(7-(3,3-difluorocyclobutyl)-2-(1H-pyrazol-3-yl)-6,7,8,9-tetrahydro-2H-1,2,3,7-tetraazabenzo[cd]azulen-4-yl)-3-methylmorpholine] | 10 to 100 nM | 100 to 1000 nM | – | – | –
C[C@@H]1COCCN1c1cc2c3c(nn(-c4cc[nH]n4)c3n1)CCN(C1COC1)C2 [Compound 8, (R)-3-Methyl-4-(7-(oxetan-3-yl)-2-(1H-pyrazol-3-yl)-6,7,8,9-tetrahydro-2H-1,2,3,7-tetraazabenzo[cd]azulen-4-yl)morpholine] | 10 to 100 nM | 100 to 1000 nM | – | – | –

Source: patent publication EP4692090A1 (Shanghai Fosun Pharmaceutical (Group) Co., Ltd., priority 2023, dated 2024)
